Assay in all cases: Greenhouse herbicidal activity assay, post-emergence
Holding throughout (type): in vivo

Assay [1] has as its system Cyperus iria. The following applies: Post-emergence test, rate 150 g a.i./hm^2, grade by fresh weight inhibition rate; for pest or weed control at 150 g/ha: Cyperus iria, read-out: Control efficacy grade, Cyperus iria. An outline of the steps:
(§1)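 Foliar spray at 3-6 leaves; pot-grown in nutrient soil in growth chamber; air-dried post-spray. Read-out at 14-21 d: fresh weight inhibition, graded A (≥80% to 100%) down to E (<20%); NT = not tested.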

The test system of assay [2] is Digitaria sanguinalis. The following applies: Post-emergence test, rate 150 g a.i./hm^2, grade by fresh weight inhibition rate; for pest or weed control at 150 g/ha: Digitaria sanguinalis, read-out: Control efficacy grade, Digitaria sanguinalis. An outline of the steps: as §1
In assay [3] the test system is Echinochloa crusgalli. The following applies: Post-emergence test, rate 150 g a.i./hm^2, grade by fresh weight inhibition rate; for pest or weed control at 150 g/ha: Echinochloa crus-galli, read-out: Control efficacy grade, Echinochloa crusgalli. An outline of the steps:
as §1

Assay [4] relates to Eclipta prostrata. The following applies: Post-emergence test, rate 150 g a.i./hm^2, grade by fresh weight inhibition rate; for pest or weed control at 150 g/ha: Eclipta prostrata, read-out: Control efficacy grade, Eclipta prostrata. The method, boiled down: as §1
Assay [5] deals with Leptochloa chinensis. Particulars: Post-emergence test, rate 150 g a.i./hm^2, grade by fresh weight inhibition rate; for pest or weed control at 150 g/ha: Dinebra chinensis, read-out: Control efficacy grade, Leptochloa chinensis. An outline of the steps: as §1

17 compounds from US20250223268A1, “4-Methylsulfonylbenzamide Compound, Preparation Method, Herbicidal Composition And Use” (Jiangsu Flag Chemical Industry Co., Ltd., priority 2022, published 2025) can be followed below.

Take `CCn1nnnc1NC(=O)c1ccc(S(C)(=O)=O)c([S+]([O-])C(C)C)c1Cl` (stereo not shown) [Compound 1-93, 2-chloro-N-(1-ethyl-1H-tetrazol-5-yl)-3-(isopropylsulfinyl)-4-(methylsulfonyl)benzamide]: the pest or weed control at 150 g/ha in assay [1], in assay [2], in assay [3], in assay [4] and in assay [5] was 80 to 100% each time.
Turning to `Cn1ncnc1NC(=O)c1ccc(S(C)(=O)=O)c([S+]([O-])C2CC2)c1Cl` (racemic) [Compound 2-33], the “Control efficacy grade, Cyperus iria” value in assay [1] is reported as “A (Fresh weight inhibition rate≥80% to 100%)”. Moreover, the “Control efficacy grade, Digitaria sanguinalis” value in assay [2] is reported as “A (Fresh weight inhibition rate≥80% to 100%)”. Further, the “Control efficacy grade, Echinochloa crusgalli” value in assay [3] is “A (Fresh weight inhibition rate≥80% to 100%)”. Moreover, the “Control efficacy grade, Eclipta prostrata” value in assay [4] is given as “A (Fresh weight inhibition rate≥80% to 100%)”. The “Control efficacy grade, Leptochloa chinensis” value in assay [5] was “A (Fresh weight inhibition rate≥80% to 100%)”.
As to `CS(=O)(=O)c1ccc(C(=O)Nc2nnco2)c(Cl)c1SC1CCCC1` [Compound 3-313], the “Control efficacy grade, Cyperus iria” value in assay [1] is given as “A (Fresh weight inhibition rate≥80% to 100%)”. For the same compound, the “Control efficacy grade, Digitaria sanguinalis” value in assay [2] was “A (Fresh weight inhibition rate≥80% to 100%)”. In addition, the “Control efficacy grade, Echinochloa crusgalli” value in assay [3] is recorded as “A (Fresh weight inhibition rate≥80% to 100%)”. Further, the “Control efficacy grade, Eclipta prostrata” value in assay [4] is on record as “A (Fresh weight inhibition rate≥80% to 100%)”. The “Control efficacy grade, Leptochloa chinensis” value in assay [5] is “A (Fresh weight inhibition rate≥80% to 100%)”.
On to `C=CCSc1c(S(C)(=O)=O)ccc(C(=O)Nc2nnnn2C)c1Cl` [Compound 1-67], for which the “Control efficacy grade, Cyperus iria” value in assay [1] is on record as “A (Fresh weight inhibition rate≥80% to 100%)”. In addition, the “Control efficacy grade, Digitaria sanguinalis” value in assay [2] is “A (Fresh weight inhibition rate≥80% to 100%)”. For the same compound, the “Control efficacy grade, Echinochloa crusgalli” value in assay [3] is “A (Fresh weight inhibition rate≥80% to 100%)”. In assay [4], the “Control efficacy grade, Eclipta prostrata” value is listed as “A (Fresh weight inhibition rate≥80% to 100%)”. For the same compound, in assay [5], the “Control efficacy grade, Leptochloa chinensis” value was “A (Fresh weight inhibition rate≥80% to 100%)”.
In the case of `Cn1ncnc1NC(=O)c1ccc(S(C)(=O)=O)c([S+]([O-])C2CCCC2)c1Cl` (racemic) [Compound 2-43], in assay [1], the “Control efficacy grade, Cyperus iria” value is reported as “A (Fresh weight inhibition rate≥80% to 100%)”. The “Control efficacy grade, Digitaria sanguinalis” value in assay [2] is given as “A (Fresh weight inhibition rate≥80% to 100%)”. For the same compound, the “Control efficacy grade, Echinochloa crusgalli” value in assay [3] is reported as “A (Fresh weight inhibition rate≥80% to 100%)”. The “Control efficacy grade, Eclipta prostrata” value in assay [4] was “A (Fresh weight inhibition rate≥80% to 100%)”. In assay [5], the “Control efficacy grade, Leptochloa chinensis” value was “A (Fresh weight inhibition rate≥80% to 100%)”.
Take `CCc1nnc(NC(=O)c2ccc(S(C)(=O)=O)c(SC3CC3)c2Cl)o1` [Compound 3-419]: in assay [1], the “Control efficacy grade, Cyperus iria” value was “A (Fresh weight inhibition rate≥80% to 100%)”. Also, the “Control efficacy grade, Digitaria sanguinalis” value in assay [2] is on record as “A (Fresh weight inhibition rate≥80% to 100%)”. Also, in assay [3], the “Control efficacy grade, Echinochloa crusgalli” value was “A (Fresh weight inhibition rate≥80% to 100%)”. The “Control efficacy grade, Eclipta prostrata” value in assay [4] is given as “A (Fresh weight inhibition rate≥80% to 100%)”. Besides, the “Control efficacy grade, Leptochloa chinensis” value in assay [5] was “A (Fresh weight inhibition rate≥80% to 100%)”.
On to `CS(=O)(=O)c1ccc(C(=O)Nc2nnco2)c(Cl)c1[S+]([O-])C1CCC1` (racemic) [Compound 3-309], for which the “Control efficacy grade, Cyperus iria” value in assay [1] is “A (Fresh weight inhibition rate≥80% to 100%)”. Further, in assay [2], the “Control efficacy grade, Digitaria sanguinalis” value is given as “A (Fresh weight inhibition rate≥80% to 100%)”. Moreover, the “Control efficacy grade, Echinochloa crusgalli” value in assay [3] is “A (Fresh weight inhibition rate≥80% to 100%)”. Besides, the “Control efficacy grade, Eclipta prostrata” value in assay [4] is “A (Fresh weight inhibition rate≥80% to 100%)”. Moreover, in assay [5], the “Control efficacy grade, Leptochloa chinensis” value is on record as “A (Fresh weight inhibition rate≥80% to 100%)”.
Turning to `CCCC[S+]([O-])c1c(S(C)(=O)=O)ccc(C(=O)Nc2nnco2)c1Cl` (racemic) [Compound 3-278], the “Control efficacy grade, Cyperus iria” value in assay [1] is given as “A (Fresh weight inhibition rate≥80% to 100%)”. Besides, the “Control efficacy grade, Digitaria sanguinalis” value in assay [2] is recorded as “A (Fresh weight inhibition rate≥80% to 100%)”. Moreover, the “Control efficacy grade, Echinochloa crusgalli” value in assay [3] was “A (Fresh weight inhibition rate≥80% to 100%)”. Also, the “Control efficacy grade, Eclipta prostrata” value in assay [4] was “A (Fresh weight inhibition rate≥80% to 100%)”. In addition, the “Control efficacy grade, Leptochloa chinensis” value in assay [5] was “A (Fresh weight inhibition rate≥80% to 100%)”.
In the case of `CC(C)[S+]([O-])c1c(S(C)(=O)=O)ccc(C(=O)Nc2nnc(C3CC3)o2)c1Cl` (single isomer, unassigned) [Compound 3-623], in assay [1], the “Control efficacy grade, Cyperus iria” value was “A (Fresh weight inhibition rate≥80% to 100%)”. For the same compound, the “Control efficacy grade, Digitaria sanguinalis” value in assay [2] is recorded as “A (Fresh weight inhibition rate≥80% to 100%)”. The “Control efficacy grade, Echinochloa crusgalli” value in assay [3] is reported as “A (Fresh weight inhibition rate≥80% to 100%)”. Besides, the “Control efficacy grade, Eclipta prostrata” value in assay [4] is “A (Fresh weight inhibition rate≥80% to 100%)”. The “Control efficacy grade, Leptochloa chinensis” value in assay [5] was “A (Fresh weight inhibition rate≥80% to 100%)”.
For the compound `CS(=O)(=O)c1ccc(C(=O)Nc2nnco2)c(Cl)c1SC1CC1` [Compound 3-303], in assay [1], the “Control efficacy grade, Cyperus iria” value is given as “B (Fresh weight inhibition rate≥260% to <80%)”. In addition, the “Control efficacy grade, Digitaria sanguinalis” value in assay [2] is “A (Fresh weight inhibition rate≥80% to 100%)”. Moreover, the “Control efficacy grade, Echinochloa crusgalli” value in assay [3] is “A (Fresh weight inhibition rate≥80% to 100%)”. In addition, the “Control efficacy grade, Eclipta prostrata” value in assay [4] was “A (Fresh weight inhibition rate≥80% to 100%)”. The “Control efficacy grade, Leptochloa chinensis” value in assay [5] was “A (Fresh weight inhibition rate≥80% to 100%)”.
`CCCSc1c(S(C)(=O)=O)ccc(C(=O)Nc2nnnn2C)c1Cl` [Compound 1-1, 2-chloro-N-(1-methyl-1H-tetrazol-5-yl)-4-(methylsulfonyl)-3-(propylthio)benzamide]: the pest or weed control at 150 g/ha in assay [1], in assay [2], in assay [3], in assay [4] and in assay [5] was 80 to 100% in each case.
For `CS(=O)(=O)c1ccc(C(=O)Nc2nnco2)c(Cl)c1[S+]([O-])C1CCCC1` (racemic) [Compound 3-314], the “Control efficacy grade, Cyperus iria” value in assay [1] was “A (Fresh weight inhibition rate≥80% to 100%)”. Further, in assay [2], the “Control efficacy grade, Digitaria sanguinalis” value is “A (Fresh weight inhibition rate≥80% to 100%)”. The “Control efficacy grade, Echinochloa crusgalli” value in assay [3] is recorded as “A (Fresh weight inhibition rate≥80% to 100%)”. For the same compound, the “Control efficacy grade, Eclipta prostrata” value in assay [4] was “A (Fresh weight inhibition rate≥80% to 100%)”. Also, the “Control efficacy grade, Leptochloa chinensis” value in assay [5] is given as “A (Fresh weight inhibition rate≥80% to 100%)”.
For the compound `CCC[S+]([O-])c1c(S(C)(=O)=O)ccc(C(=O)Nc2nnc(C(C)C)o2)c1Cl` (stereo not shown) [Compound 3-500, 2-chloro-N-(5-isopropyl-1,3,4-oxadiazol-2-yl)-4-(methylsulfonyl)-3-(propylsulfinyl)benzamide], the pest or weed control at 150 g/ha in assay [1], in assay [2], in assay [3], in assay [4] and in assay [5] was 80 to 100% in each case.
As for `CCc1nnc(NC(=O)c2ccc(S(C)(=O)=O)c([S+]([O-])CC(C)C)c2Cl)o1` (racemic) [Compound 3-410], in assay [1], the “Control efficacy grade, Cyperus iria” value is given as “A (Fresh weight inhibition rate≥80% to 100%)”. Besides, in assay [2], the “Control efficacy grade, Digitaria sanguinalis” value is recorded as “A (Fresh weight inhibition rate≥80% to 100%)”. The “Control efficacy grade, Echinochloa crusgalli” value in assay [3] is “C (Fresh weight inhibition rate≥40% to <60%)”. The “Control efficacy grade, Eclipta prostrata” value in assay [4] is “A (Fresh weight inhibition rate≥80% to 100%)”. Besides, the “Control efficacy grade, Leptochloa chinensis” value in assay [5] is “A (Fresh weight inhibition rate≥80% to 100%)”.
With `CS(=O)(=O)c1ccc(C(=O)Nc2nnco2)c(Cl)c1[S+]([O-])CCCl` (racemic) [Compound 3-379], the “Control efficacy grade, Cyperus iria” value in assay [1] was “A (Fresh weight inhibition rate≥80% to 100%)”. Further, in assay [2], the “Control efficacy grade, Digitaria sanguinalis” value is “A (Fresh weight inhibition rate≥80% to 100%)”. The “Control efficacy grade, Echinochloa crusgalli” value in assay [3] is “A (Fresh weight inhibition rate≥80% to 100%)”. The “Control efficacy grade, Eclipta prostrata” value in assay [4] was “A (Fresh weight inhibition rate≥80% to 100%)”. Moreover, the “Control efficacy grade, Leptochloa chinensis” value in assay [5] is given as “A (Fresh weight inhibition rate≥80% to 100%)”.
On to `CCc1nnc(NC(=O)c2ccc(S(C)(=O)=O)c([S+]([O-])C(C)C)c2Cl)o1` (stereo not shown) [Compound 3-389, 2-chloro-N-(5-ethyl-1,3,4-oxadiazol-2-yl)-3-(isopropylsulfinyl)-4-(methylsulfonyl)benzamide], for which the pest or weed control at 150 g/ha in assay [1], in assay [2], in assay [3], in assay [4] and in assay [5] was 80 to 100% each time.
On to `CCc1nnc(NC(=O)c2ccc(S(C)(=O)=O)c([S+]([O-])CCCl)c2Cl)o1` (racemic) [Compound 3-495], for which, in assay [1], the “Control efficacy grade, Cyperus iria” value was “A (Fresh weight inhibition rate≥80% to 100%)”. Besides, the “Control efficacy grade, Digitaria sanguinalis” value in assay [2] is reported as “A (Fresh weight inhibition rate≥80% to 100%)”. The “Control efficacy grade, Echinochloa crusgalli” value in assay [3] is “A (Fresh weight inhibition rate≥80% to 100%)”. In assay [4], the “Control efficacy grade, Eclipta prostrata” value is “A (Fresh weight inhibition rate≥80% to 100%)”. In addition, in assay [5], the “Control efficacy grade, Leptochloa chinensis” value is recorded as “A (Fresh weight inhibition rate≥80% to 100%)”.
